Earlier results, collected in publication PMC7395068, “The evolution of strategies to minimise the risk of human drug-induced liver injury (DILI) in drug discovery and development” (Archives of Toxicology, 2020).
Where two headings read alike, the source gives them in different places.

Key:
[1] = cited from earlier work
[2] = tested on: HepG2 cells; conditions: cited from earlier work
[3] = cited from earlier work; remark: listed apart in the source
[4] = tested on: THLE or HepG2 cells, isolated mitochondria, BSEP; conditions: cited from earlier work
[5] = tested on: isolated mouse liver mitochondria; conditions: cited from earlier work
[6] = tested on: human hepatocytes; conditions: cited from earlier work
[7] = tested on: primary human hepatocytes, NIH3T3 fibroblasts, BSEP, CYP3A4; conditions: cited from earlier work
[8] = In vitro Assay, ref O'Brien 2006
[9] = In vitro Assay, ref Porceddu 2012
[10] = assignment in O'Brien 2006, ref O'Brien 2006

In the case of `CCn1cc(C(=O)O)c(=O)c2cc(F)c(N3CCNCC3)cc21` [norfloxacin], the “DILI +VE (5-8), DILI -VE (-4)” value ([1]; ref Chen 2016) is given as “+VE”, the DILI severity category ([1]; ref Chen 2016) is given as “vLess-DILI-Concern” and the “Structural based (HCI)” value [2, 8] is given as “+VE (lowest HCI endpoint IC50 (or in the absence of dose–response < 100 µM) < 30 × total human plasma exposure levels (Cmax.tot))”. For the same compound, the “In vivo DILI” value ([3]; ref O'Brien 2006) was “+VE”.
In the case of `CC[C@H](C)C(=O)O[C@H]1C[C@H](O)C=C2C=C[C@H](C)[C@H](CC[C@@H](O)C[C@@H](O)CC(=O)O)[C@H]21` [pravastatin], the “Partition Hybrid HRM Score” value ([4]; In vitro Assay, ref Aleo 2019) is listed as “+VE”, the “Ro2 Hybrid HRM Score” value ([4]; In vitro Assay, ref Aleo 2019) is listed as “-VE” and the “DILI +VE (5-8), DILI -VE (-4)” value ([1]; ref Chen 2016) is listed as “+VE”. For the same compound, the DILI severity category ([1]; ref Chen 2016) was “vLess-DILI-Concern”, the “Structural based (HCI)” value [2, 8] was “-VE” and the “In vivo DILI” value ([3]; […]) was “-VE”. The “In vivo DILI” value ([3]; ref Aleo 2019) was “+VE”, the “In vivo DILI” value ([3]; ref O'Brien 2006) was “+VE” and the “In vivo DILI” value ([3]; ref Porceddu 2012) was “+VE”. The “in vitro data EC2<=1x Cmax” value [5, 9] was “-VE” and the “in vitro data EC20<=2uM” value [5, 9] was “-VE”.
In the case of `CCc1nc(N)nc(N)c1-c1ccc(Cl)cc1` [pyrimethamine], the “DILI +VE (5-8), DILI -VE (-4)” value ([1]; ref Chen 2016) is listed as “+VE”, the DILI severity category ([1]; ref Chen 2016) is listed as “vLess-DILI-Concern” and the “Structural based (HCI)” value [2, 8] is listed as “+VE”. The “In vivo DILI” value ([3]; ref O'Brien 2006) was “+VE”, the “In vivo DILI” value ([3]; ref Schadt 2015) was “-VE” and the “In vivo DILI” value ([3]; ref Xu 2008) was “+VE”. For the same compound, the “Structural based (HCI)” value ([6]; In vitro Assay, ref Xu 2008) was “+VE”, the “Cellular toxicity (3T3 cells)” value [7] was “-VE” and the “Combined Assay” value [7] was “-VE”. The “GSH adduct HML” value [7] was “-VE”, the Hepatocyte cellular toxicity [7] was “-VE” and the “MitoTox 3T3” value [7] was “-VE”. For the same compound, the “TDI CYP3A4” value [7] was “-VE” and the hBSEP inhibition [7] was “-VE”.
In the case of `[Cl-].[Na+]` [sodium chloride], the “Structural based (HCI), In vitro Assay” value [2] is listed as “+VE” and the “In vivo DILI” value ([3]; in vivo) is listed as “-VE”.
For `CN(N=O)C(=O)N[C@@H](C=O)[C@@H](O)[C@H](O)[C@H](O)CO` [streptozocin], the “DILI +VE (5-8), DILI -VE (-4)” value ([1]; ref Chen 2016) is listed as “-VE”, the DILI severity category ([1]; ref Chen 2016) is listed as “Ambiguous DILI-concern” and the “Structural based (HCI)” value [2, 8] is listed as “-VE”. The “In vivo DILI” value ([3]; ref O'Brien 2006) was “-VE”.
In the case of `Nc1ccc(S(=O)(=O)NC(=O)c2ccccc2)cc1` [sulfabenzamide], the “Structural based (HCI), In vitro Assay” value ([2]; HepG2 HCI, ref O'Brien 2006) is given as “-VE” and the “In vivo DILI” value [3, 10] is given as “-VE”.
In the case of `Nc1ccc(S(=O)(=O)Nc2ccnn2-c2ccccc2)cc1` [sulfaphenazole], the “Structural based (HCI)” value [2, 8] is listed as “+VE (lowest HCI endpoint IC50 (or in the absence of dose–response < 100 µM) < 30 × total human plasma exposure levels (Cmax.tot))”, the “In vivo DILI” value ([3]; […]) is listed as “-VE” and the “In vivo DILI” value ([3]; ref O'Brien 2006) is listed as “+VE”.
In the case of `Cc1scc2c1N(C(=O)CN1CCN(C)CC1)c1ccccc1NC2=O` [telenzipine], the “Structural based (HCI), In vitro Assay” value ([2]; HepG2 HCI, ref O'Brien 2006) is listed as “-VE” and the “In vivo DILI” value [3, 10] is listed as “-VE”.
For `Cc1ccc(S(=O)(=O)NC(=O)NN2CCCCCC2)cc1` [tolazamide], the “DILI +VE (5-8), DILI -VE (-4)” value ([1]; ref Chen 2016) is listed as “+VE”, the DILI severity category ([1]; ref Chen 2016) is listed as “vLess-DILI-Concern” and the “Structural based (HCI)” value [2, 8] is listed as “+VE (lowest HCI endpoint IC50 (or in the absence of dose–response < 100 µM) < 30 × total human plasma exposure levels (Cmax.tot))”. For the same compound, the “In vivo DILI” value ([3]; ref O'Brien 2006) was “+VE”.
In the case of `CC[C@]12CCCN3CCc4c(n(c5ccccc45)[C@@](O)(C(=O)OC)C1)[C@@H]32` [vincamine], the “Structural based (HCI), In vitro Assay” value ([2]; HepG2 HCI, ref O'Brien 2006) is given as “+VE” and the “In vivo DILI” value [3, 10] is given as “-VE”.
In the case of `COc1cc(C(=O)NS(=O)(=O)c2ccccc2C)ccc1Cc1cn(C)c2ccc(NC(=O)OC3CCCC3)cc12` [zafirlukast], the “Partition Hybrid HRM Score” value ([4]; In vitro Assay, ref Aleo 2019) is given as “+VE”, the “Ro2 Hybrid HRM Score” value ([4]; In vitro Assay, ref Aleo 2019) is given as “+VE” and the “DILI +VE (5-8), DILI -VE (-4)” value ([1]; ref Chen 2016) is given as “+VE”. For the same compound, the DILI severity category ([1]; ref Chen 2016) was “vMost-DILI-Concern”, the “Structural based (HCI)” value [2, 8] was “+VE” and the “In vivo DILI” value ([3]; […]) was “+VE”. The “In vivo DILI” value ([3]; ref Aleo 2019) was “+VE”, the “In vivo DILI” value ([3]; ref O'Brien 2006) was “+VE” and the “In vivo DILI” value ([3]; ref Xu 2008) was “+VE”. The “Structural based (HCI)” value ([6]; In vitro Assay, ref Xu 2008) was “-VE”.
For `Nc1ccn([C@H]2CC[C@@H](CO)O2)c(=O)n1` [zalcitabine], the “Partition Hybrid HRM Score” value ([4]; In vitro Assay, ref Aleo 2019) is listed as “-VE”, the “Ro2 Hybrid HRM Score” value ([4]; In vitro Assay, ref Aleo 2019) is listed as “-VE” and the “Structural based (HCI)” value [2, 8] is listed as “-VE”. For the same compound, the “In vivo DILI” value ([3]; ref Aleo 2019) was “+VE”, the “In vivo DILI” value ([3]; ref O'Brien 2006) was “-VE” and the “In vivo DILI” value ([3]; ref Xu 2008) was “-VE”. The “Structural based (HCI)” value ([6]; In vitro Assay, ref Xu 2008) was “-VE”.
For `Cc1cn([C@H]2C[C@H](N=[N+]=[N-])[C@@H](CO)O2)c(=O)[nH]c1=O` [zidovudine], the “Partition Hybrid HRM Score” value [4] is given as “-VE”, the “Ro2 Hybrid HRM Score” value [4] is given as “-VE” and the DILI severity category ([1]; in vivo) is given as “vMost-DILI-Concern”. The “Structural based (HCI)” value [2] was “+VE”, the “in vitro data EC2<=1x Cmax” value [5, 9] was “+VE” and the “in vitro data EC20<=2uM” value [5] was “-VE”. For the same compound, the “Structural based (HCI)” value [6] was “-VE”.
In the case of `NS(=O)(=O)Cc1noc2ccccc12` [zonisamide], the “DILI +VE (5-8), DILI -VE (-4)” value ([1]; ref Chen 2016) is listed as “+VE”, the DILI severity category ([1]; ref Chen 2016) is listed as “vLess-DILI-Concern” and the “Structural based (HCI)” value [2, 8] is listed as “+VE (lowest HCI endpoint IC50 (or in the absence of dose–response < 100 µM) < 30 × total human plasma exposure levels (Cmax.tot))”. For the same compound, the “In vivo DILI” value ([3]; ref O'Brien 2006) was “-VE”.
In the case of cyanocobalamin, the “Partition Hybrid HRM Score” value ([4]; In vitro Assay, ref Aleo 2019) is given as “-VE”, the “Ro2 Hybrid HRM Score” value ([4]; In vitro Assay, ref Aleo 2019) is given as “-VE” and the “DILI +VE (5-8), DILI -VE (-4)” value ([1]; in vivo) is given as “-VE”. The DILI severity category ([1]; in vivo) was “vNo-DILI-Concern”, the “Structural based (HCI)” value [2, 8] was “-VE” and the “In vivo DILI” value ([3]; ref Aleo 2019) was “-VE”. The “In vivo DILI” value ([3]; ref O'Brien 2006) was “-VE”, the “In vivo DILI” value ([3]; ref Xu 2008) was “-VE” and the “Structural based (HCI)” value ([6]; In vitro Assay, ref Xu 2008) was “-VE”.
